Experimental data as given in patent publication US7820817B2, “Modulators of muscarinic receptors” (Vertex Pharmaceuticals Incorporated, priority 2004, dated 2010).

Test system: at least one muscarinic receptor, M1, M2, M3, M4
Assay: Muscarinic modulation activity (Table 3)
Format: cell-based
Set-up: key: +++: exhibited muscarinic modulation activity for at least one muscarinic receptor, M1, M2, M3, M4, at a concentration of less than 5 μM; ++: exhibited muscarinic modulation activity for at least one muscarinic receptor, M1, M2, M3, M4, at a concentration of between 30 μM and 5 μM; +: exhibited muscarinic modulation activity for at least one muscarinic receptor, M1, M2, M3, M4, at a concentration of greater than 30 μM; −: were not assayed or did not exhibit muscarinic modulation activity for at least one muscarinic receptor, M1, M2, M3, M4, at the concentration at which the assay was performed
Details: concentration at which modulation of at least one muscarinic receptor, M1, M2, M3, M4, was exhibited; CHO cells
Method: CHO cells expressing muscarinic receptors (M1 to M5) are grown as monolayers in tissue culture flasks at 37° C. in a humidified atmosphere containing 5% CO2 and passaged every 3-5 days. The growth media is Dulbecco's modified eagles medium (DMEM, Gibco Cat#12430-054), containing 25 mM Hepes and supplemented with Fetal Bovine Serum (Hyclone, cat#SH30071.03), 0.1 mM of MEM non-essential amino acids (GIBCO, Cat#11140-050), 1 mM MEM Sodium Pyruvate (GIBCO Cat#11360-070) and 100 units/ml of Penicillin G and 100 μg/ml of Streptomycin (GIBCO Cat#15140-122). The recombinant muscarinic receptor cell lines are grown under antibiotic pressure with media containing 25 μg/ml zeocin and 500 μg/ml G418 (M1-CHO), 4 μg/ml puromycin, 50 μg/ml zeocin and 2.5 μg/ml blasticidin (M2 and M4-CHO) or 50 μg/ml zeocin and 4 μg/ml puromycin (M3 and M5-CHO).
Cells are harvested at 80-90% confluence using Versene (GIBCO Cat#15040-066), collected by centrifugation and seeded 18-24 hrs prior to running the calcium assay at a density of 5,000-10,000 cells/well in […], clear-bottomed 384-well plates (BD Biocoat, poly-D-lysine, Cat#356663). The day of the experiment, the cells are washed with a plate washer (Bioteck Instruments, ELX 405) using bath1 buffer (140-mM NaCl, 4.5-mM KCl, 2-mM CaCl2, 1-mM MgCl2, 10-mM Hepes-Na, 10-mM Glucose, pH 7.4, with NaOH) containing 1 mM Probenecid. Next, the calcium dye Fluo-3 (25 μl/well of Fluo-3 AM at 4 μM, Molecular Probes F-1241, in Bath 1 buffer containing 1 mM Probenecid) is added to the 25 μl of Bath 1 remaining in each well after the plate wash and the dye is loaded at 37° C. in the tissue culture incubator for 60-90 min. The fluorescent dye is removed using the plate washer with Bath 1 containing 1 mM Probenecid, leaving 25 μl/well of this solution after the wash. Alternatively, cells can be loaded with the calcium indicator from Molecular Devices (Calcium 3 Assay Reagents, Cat #R7181) adding 5 μl of a 5× solution dye in Bath 1 containing 1 mM Probenecid (10 ml per dye flask cat#R7182 to generate a solution […]) to 20 μl of the same buffer. After loading for 60 min. the experiment can be run without having to remove the dye.
Compounds are prepared at a 2× fold concentration in a 96-well plate (round bottom, Costar Corning cat#3656), by reconstituting the pre-spotted compounds in bath 1 containing 1 mM probenecid. The final concentration DMSO is 0.5%, and the amount of DMSO is normalized across the assay plate. To determine an agonist action of the compounds on muscarinic receptors, the reconstituted compounds are added (25 μl compound/well) to the cell assay plate (containing 25 μl/well) using the multi-channel robotic system of the FLIPR 3 Instrument (Molecular Devices, Sunnyvale, Calif.). To determine a functional inhibitory action of the compounds on muscarinic receptors, the reconstituted compounds are added (25 μl compound/well) to the assay plate and pre-incubated for 15 min prior to adding 25 μl of Carbachol at 3× the EC80 for each muscarinic subtype. Alternatively, the compounds can be co-applied simultaneously with the agonist. In both assay modes, the fluorescence is recorded for 60 sec (excitation wavelength is […] and emission wavelength 540 nm) using the FLIPR 3 instrument.
The potency, efficacy and selectivity of the muscarinic compounds were evaluated by screening the compound activity across the whole family (M1 to M5 cells).
CHO cells expressing muscarinic receptors (M1 to M5) and containing a gene reporter system β-Lactamase) with transcriptional control mediated by calcium release (NFAT activation). See Zlokarnik, G; Negulescu, P. A.; Knapp, T. E.; Mere, L; Burres, N; Feng, L; Whitney, M; Roemer, K; Tsien, R. Y. Quantitation of transcription and clonal selection of single living cells with β-lactamase as reporter. Science, 1998 Jan. 2, 279(5347):84-8. The cells are grown as monolayers in tissue culture flasks at 37° C. in a humidified atmosphere containing 5% CO2 and passaged every 3-5 days. […]

Row | Molecule | ACTIVITY (muscarinic modulation activity)
1 | 3-[4-(3-cyanopyrazin-2-yl)piperazin-1-yl]-8-azabicyclo[3.2.1]octane-8-carboxylic acid ethyl ester [Compound 45] | + (exhibited muscarinic modulation activity for at least one muscarinic receptor, M1, M2, M3, M4, at a concentration of greater than 30 μM)
2 | O=[N+]([O-])c1cccnc1N1CCN(CC2CC3C=CC2C3)CC1 (centres unmarked) [Compound 1, 1-(5-bicyclo[2.2.1]hept-2-enylmethyl)-4-(3-nitro-2-pyridyl)-piperazine] | ++ (exhibited muscarinic modulation activity for at least one muscarinic receptor, M1, M2, M3, M4, at a concentration of between 30 μM and 5 μM)
3 | N#Cc1cccnc1N1CCN(C2C3CC4CC(C3)CC2C4)CC1 (centres unmarked) [Compound 2, 2-[4-(2-adamantyl)piperazin-1-yl]nicotinonitrile] | ++ (exhibited muscarinic modulation activity for at least one muscarinic receptor, M1, M2, M3, M4, at a concentration of between 30 μM and 5 μM)
4 | N#Cc1ccc(C(F)(F)F)nc1N1CCN(C2CC3CCC2C3)CC1 (centres unmarked) [Compound 3, 2-(4-norbornan-2-ylpiperazin-1-yl)-6-(trifluoromethyl)nicotinonitrile] | + (exhibited muscarinic modulation activity for at least one muscarinic receptor, M1, M2, M3, M4, at a concentration of greater than 30 μM)
5 | COc1cc(OC)nc(C2CCN(CC3CC4C=CC3C4)CC2)n1 (centres unmarked) [Compound 4, 2-[1-(5-bicyclo[2.2.1]hept-2-enylmethyl)-4-piperidyl]-4,6-dimethoxy-pyrimidine] | +++ (exhibited muscarinic modulation activity for at least one muscarinic receptor, M1, M2, M3, M4, at a concentration of less than 5 μM)
6 | O=[N+]([O-])c1cccnc1N1CCN(C2CC3CCC2C3)CC1 (centres unmarked) [Compound 5, 1-(3-nitro-2-pyridyl)-4-norbornan-2-yl-piperazine] | + (exhibited muscarinic modulation activity for at least one muscarinic receptor, M1, M2, M3, M4, at a concentration of greater than 30 μM)
7 | NC(=O)c1cccnc1N1CCN(CC2CC3C=CC2C3)CC1 (centres unmarked) [Compound 6, 2-[4-(5-bicyclo[2.2.1]hept-2-enylmethyl)piperazin-1-yl]nicotinamide] | −
8 | Clc1cccnc1N1CCN(C2CC3CCC2C3)CC1 (centres unmarked) [Compound 7, 1-(3-chloro-2-pyridyl)-4-norbornan-2-yl-piperazine] | +++ (exhibited muscarinic modulation activity for at least one muscarinic receptor, M1, M2, M3, M4, at a concentration of less than 5 μM)
9 | N#Cc1ccc(C(F)(F)F)nc1N1CCN(CC2CC3CCC2C3)CC1 (centres unmarked) [Compound 8, 2-[4-(norbornan-2-ylmethyl)piperazin-1-yl]-6-(trifluoromethyl)nicotinonitrile] | −
10 | c1ccc2c(c1)nnn2C1CCN(C2CC3CCC(C3)C2)CC1 (centres unmarked) [Compound 9, 1-[1-(3-bicyclo[3.2.1]octyl)-4-piperidyl]-1H-benzotriazole] | −
11 | NC(=O)c1cccnc1N1CCN(C2CC3CCC2C3)CC1 (centres unmarked) [Compound 10, 2-(4-norbornan-2-ylpiperazin-1-yl)nicotinamide] | −
12 | CCOC(=O)N1C2CCC1CC(N1CCN(c3nnc(-c4ccccc4)cc3C#N)CC1)C2 (centres unmarked) [Compound 11, 3-[4-(4-cyano-6-phenyl-pyridazin-3-yl)piperazin-1-yl]-8-azabicyclo[3.2.1]octane-8-carboxylic acid ethyl ester] | + (exhibited muscarinic modulation activity for at least one muscarinic receptor, M1, M2, M3, M4, at a concentration of greater than 30 μM)
13 | CCOC(=O)N1C2CCC1CC(N1CCN(c3ncccc3C#N)CC1)C2 (centres unmarked) [Compound 12, 3-[4-(3-cyano-2-pyridyl)piperazin-1-yl]-8-azabicyclo[3.2.1]octane-8-carboxylic acid ethyl ester] | +++ (exhibited muscarinic modulation activity for at least one muscarinic receptor, M1, M2, M3, M4, at a concentration of less than 5 μM)
14 | N#Cc1ccc(N2CCN(CC3CC4C=CC3C4)CC2)nc1 (centres unmarked) [Compound 13, 6-[4-(5-bicyclo[2.2.1]hept-2-enylmethyl)piperazin-1-yl]nicotinonitrile] | +++ (exhibited muscarinic modulation activity for at least one muscarinic receptor, M1, M2, M3, M4, at a concentration of less than 5 μM)
15 | NC(=O)c1ccc(N2CCN(CC3CC4CCC3C4)CC2)nc1 (centres unmarked) [Compound 14, 6-[4-(norbornan-2-ylmethyl)piperazin-1-yl]nicotinamide] | −
16 | Cc1cccc(N2CCN(CC3CC4C=CC3C4)CC2)n1 (centres unmarked) [Compound 15, 1-(5-bicyclo[2.2.1]hept-2-enylmethyl)-4-(6-methyl-2-pyridyl)-piperazine] | ++ (exhibited muscarinic modulation activity for at least one muscarinic receptor, M1, M2, M3, M4, at a concentration of between 30 μM and 5 μM)
17 | Cc1cnc(C)c(N2CCN(CC3CC4C=CC3C4)CC2)n1 (centres unmarked) [Compound 16, 3-[4-(5-bicyclo[2.2.1]hept-2-enylmethyl)piperazin-1-yl]-2,5-dimethyl-pyrazine] | +++ (exhibited muscarinic modulation activity for at least one muscarinic receptor, M1, M2, M3, M4, at a concentration of less than 5 μM)
18 | Cc1nccnc1N1CCN(CC2CC3C=CC2C3)CC1 (centres unmarked) [Compound 17, 2-[4-(5-bicyclo[2.2.1]hept-2-enylmethyl)piperazin-1-yl]-3-methyl-pyrazine] | +++ (exhibited muscarinic modulation activity for at least one muscarinic receptor, M1, M2, M3, M4, at a concentration of less than 5 μM)
19 | c1cc(N2CCN(C3CC4CCC3C4)CC2)ccn1 (centres unmarked) [Compound 18, 1-norbornan-2-yl-4-(4-pyridyl)piperazine] | ++ (exhibited muscarinic modulation activity for at least one muscarinic receptor, M1, M2, M3, M4, at a concentration of between 30 μM and 5 μM)
20 | N#Cc1ccc(N2CCN(C3CC4CCC3C4)CC2)nc1 (centres unmarked) [Compound 19, 6-(4-norbornan-2-ylpiperazin-1-yl)nicotinonitrile] | ++ (exhibited muscarinic modulation activity for at least one muscarinic receptor, M1, M2, M3, M4, at a concentration of between 30 μM and 5 μM)
21 | Cc1cccnc1N1CCN(CC2CC3C=CC2C3)CC1 (centres unmarked) [Compound 20, 2-[4-(5-bicyclo[2.2.1]hept-2-enylmethyl)piperazin-1-yl]-3-methyl-pyridine] | +++ (exhibited muscarinic modulation activity for at least one muscarinic receptor, M1, M2, M3, M4, at a concentration of less than 5 μM)
22 | Clc1cccc(N2CCN(CC3CC4C=CC3C4)CC2)n1 (centres unmarked) [Compound 21, 1-(5-bicyclo[2.2.1]hept-2-enylmethyl)-4-(6-chloro-2-pyridyl)-piperazine] | −
23 | CCc1cnc(N2CCN(CC3CC4CCC3C4)CC2)nc1 (centres unmarked) [Compound 22, 5-ethyl-2-[4-(norbornan-2-ylmethyl)piperazin-1-yl]-pyrimidine] | −
